In brackets after ≈: the same amount, converted by molar mass. Like-named read-outs stand apart in the source and are kept apart here. Starred links: 1 amine or outer side, 2 acyl side, 3 side chain; linkers in the order of their positions; H or OH if unused. Non-standard residues stand in square brackets, D forms with d. Residues, ends and D or L forms follow the SMILES beside them. Groups on a side chain read outwards from the residue. X11 = COC(=O)[C@H](Cc1c[nH]cn1)NC(=O)[C@@H](C)C[C@@H](C(=O)[*:2])N(C)[*:1]; X13 = C[C@@H](C[C@@H](C(=O)[*:2])N(C)[*:1])C(=O)NCc1ccc(C(F)(F)F)cc1; Trp(1-(1,1-Me2-allyl)) = C=CC(C)(C)n1cc(C[C@H](N)C(=O)O)c2ccccc21; X5 = O=C(Oc1ccc(C[C@H](N[*:1])C(=O)[*:2])cc1[N+](=O)[O-])c1cnccn1; NMeGlu(4S-Me) = C[C@@H](C[C@@H](C(=O)[*:2])N(C)[*:1])C(=O)[*:3]; X12 = C[C@@H](C[C@@H](C(=O)[*:2])N(C)[*:1])C(=O)NCc1ccccc1; Tyr(3-NO2) = N[C@@H](Cc1ccc(O)c([N+](=O)[O-])c1)C(=O)O; Gly(E-crotyl) = C/C=C/C[C@H](N)C(=O)O; NMeL = CN[C@@H](CC(C)C)C(=O)O
Assays:
[1] = test system: Huvec-12; experiment: Cytotoxicity assay (CCK-8); assay type: cell-based; conditions: normal human umbilical vein endothelial cell line
[2] = test system: HCT116; experiment: cells; assay type: cell-based; conditions: Homo sapiens, HCT-116; colon cancer cell line
[3] = test system: MCF-7; experiment: cells; assay type: cell-based; conditions: Homo sapiens, MCF7; breast adenocarcinoma cell line
[4] = test system: L02; experiment: cells; assay type: cell-based; conditions: normal human hepatic cell line
[5] = test system: A549; experiment: Cytotoxicity assay (CCK-8); assay type: cell-based; conditions: Homo sapiens, lung cancer cell line
[6] = test system: HepG2; experiment: cells; assay type: cell-based; conditions: Homo sapiens, hepatocellular carcinoma cell line
[7] = test system: M. tuberculosis H37Rv; experiment: Antitubercular activity assay, broth dilution, auto-luminescent strain; assay type: cell-based, Mycobacterium tuberculosis
[8] = test system: HeLa; experiment: cells; assay type: cell-based; conditions: Homo sapiens, cervical carcinoma cell line
[9] = Mycobacterium tuberculosis, H37RV, Day 3rd, read-out: MICs against H37Rv, Day 3rd
[10] = Mycobacterium tuberculosis, H37RV, Day 7th, read-out: MICs against H37Rv, Day 7th
[11] = Mycobacterium tuberculosis, H37RV, Day 14th, read-out: MICs against H37Rv, Day 14th

SMILES | IC50 [1] | IC50 [2] | IC50 [3] | IC50 [4] | IC50 [5] | IC50 [6] | MIC [7, 9] | MIC [7, 10] | MIC [7, 11] | IC50 [8] | MIC ([7]; Day 3rd, read-out: MICs against H37Rv, Day 3rd) | MIC ([7]; Day 14th, read-out: MICs against H37Rv, Day 14th) | MIC ([7]; Mycobacterium tuberculosis, H37RV, read-out: MICs against H37Rv, Day 3rd) | MIC ([7]; Mycobacterium tuberculosis, H37RV, read-out: MICs against H37Rv, Day 7th) | MIC ([7]; Mycobacterium tuberculosis, H37RV, read-out: MICs against H37Rv, Day 14th)
C=CC(C)(C)n1cc(C[C@@H]2NC(=O)[C@H](C/C=C/C)NC(=O)[C@H](CC(C)C)NC(=O)[C@H](C[C@H](C)C(=O)O)N(C)C(=O)[C@H](C)NC(=O)[C@H](Cc3ccc(OC(=O)c4cnccn4)c([N+](=O)[O-])c3)NC(=O)[C@H](CC(C)C)N(C)C2=O)c2ccccc21 [Compound 15, ilamycin NJL15] (cyclo(A[NMeGlu(4S-Me)]L[Gly(E-crotyl)][Trp(1-(1,1-Me2-allyl))][NMeL][X5])) | > 50 µM | > 50 µM | > 50 µM | > 50 µM | > 50 µM | > 50 µM | 27.9 µM (≈ 32 µg/mL) | 27.9 µM (≈ 32 µg/mL) | 27.9 µM (≈ 32 µg/mL) | > 50 µM | – | – | – | – | –
C=CC(C)(C)n1cc(C[C@@H]2NC(=O)[C@H](C/C=C/C)NC(=O)[C@H](CC(C)C)NC(=O)[C@H](C[C@H](C)C(=O)NCc3ccccc3)N(C)C(=O)[C@H](C)NC(=O)[C@H](Cc3ccc(O)c([N+](=O)[O-])c3)NC(=O)[C@H](CC(C)C)N(C)C2=O)c2ccccc21 [Compound 9, ilamycin NJL9] (cyclo(A[X12]L[Gly(E-crotyl)][Trp(1-(1,1-Me2-allyl))][NMeL][Tyr(3-NO2)])) | > 50 µM | > 50 µM | > 50 µM | > 50 µM | > 50 µM | > 50 µM | 3.5 µM (≈ 3.96 µg/mL) | 3.5 µM (≈ 3.96 µg/mL) | 3.5 µM (≈ 3.96 µg/mL) | > 50 µM | – | – | – | – | –
C=CC(C)(C)n1cc(C[C@@H]2NC(=O)[C@H](C/C=C/C)NC(=O)[C@H](CC(C)C)NC(=O)[C@H](C[C@H](C)C(=O)N[C@@H](Cc3c[nH]cn3)C(=O)OC)N(C)C(=O)[C@H](C)NC(=O)[C@H](Cc3ccc(O)c([N+](=O)[O-])c3)NC(=O)[C@H](CC(C)C)N(C)C2=O)c2ccccc21 [Compound 5, ilamycin NJL5] (cyclo(A[X11]L[Gly(E-crotyl)][Trp(1-(1,1-Me2-allyl))][NMeL][Tyr(3-NO2)])) | > 50 µM | > 50 µM | > 50 µM | > 50 µM | > 50 µM | > 50 µM | 26.8 µM (≈ 32 µg/mL) | 26.8 µM (≈ 32 µg/mL) | 26.8 µM (≈ 32 µg/mL) | > 50 µM | – | – | – | – | –
C=CC(C)(C)n1cc(C[C@@H]2NC(=O)[C@H](C/C=C/C)NC(=O)[C@H](CC(C)C)NC(=O)[C@H](C[C@H](C)C(=O)N[C@@H](Cc3c[nH]c4ccccc34)C(=O)OC)N(C)C(=O)[C@H](C)NC(=O)[C@H](Cc3ccc(O)c([N+](=O)[O-])c3)NC(=O)[C@H](CC(C)C)N(C)C2=O)c2ccccc21 [Compound 6, ilamycin NJL6] (cyclo(A[NMeGlu(4S-Me)]([Trp-OMe])L[Gly(E-crotyl)][Trp(1-(1,1-Me2-allyl))][NMeL][Tyr(3-NO2)])) | > 50 µM | > 50 µM | > 50 µM | > 50 µM | > 50 µM | > 50 µM | 1.6 to 3.5 µM (≈ 1.99 to 4.35 µg/mL) | 1.7 µM (≈ 2.11 µg/mL) | 1.6 to 1.7 µM (≈ 1.99 to 2.11 µg/mL) | > 50 µM | 1.7 µM (≈ 2.11 µg/mL) | 1.7 µM (≈ 2.11 µg/mL) | – | – | –
C=CC(C)(C)n1cc(C[C@@H]2NC(=O)[C@H](C/C=C/C)NC(=O)[C@H](CC(C)C)NC(=O)[C@H](C[C@H](C)C(=O)N[C@@H](Cc3ccccc3)C(=O)OC)N(C)C(=O)[C@H](C)NC(=O)[C@H](Cc3ccc(O)c([N+](=O)[O-])c3)NC(=O)[C@H](CC(C)C)N(C)C2=O)c2ccccc21 [Compound 7, ilamycin NJL7] (cyclo(A[NMeGlu(4S-Me)]([Phe-OMe])L[Gly(E-crotyl)][Trp(1-(1,1-Me2-allyl))][NMeL][Tyr(3-NO2)])) | > 50 µM | > 50 µM | > 50 µM | > 50 µM | > 50 µM | > 50 µM | 26.6 µM (≈ 32 µg/mL) | 13.3 µM (≈ 16 µg/mL) | 6.6 µM (≈ 7.94 µg/mL) | > 50 µM | – | – | – | – | –
C=CC(C)(C)n1cc(C[C@@H]2NC(=O)[C@H](C/C=C/C)NC(=O)[C@H](CC(C)C)NC(=O)[C@H](C[C@H](C)C(=O)NCc3ccc(C(F)(F)F)cc3)N(C)C(=O)[C@H](C)NC(=O)[C@H](Cc3ccc(O)c([N+](=O)[O-])c3)NC(=O)[C@H](CC(C)C)N(C)C2=O)c2ccccc21 [Compound 12, ilamycin NJL12] (cyclo(A[X13]L[Gly(E-crotyl)][Trp(1-(1,1-Me2-allyl))][NMeL][Tyr(3-NO2)])) | > 50 µM | > 50 µM | > 50 µM | > 50 µM | > 50 µM | > 50 µM | – | – | – | > 50 µM | – | – | > 100 µM | > 100 µM | > 100 µM

— PMC8586704 (Frontiers in Chemistry, 2021)
